From patent publication US20060167106A1, “Compounds acting at the centrosome” (priority 2004, published 2006)
“Also recorded” adds a separate entry of the source.

Assays:
CHO-α-tubulin-YFP cells = assay: α-tubulin-YFP localization in CHO-α-tubulin-YFP cells (fluorescence imaging); type: cell-based, Chinese hamster; settings: for accumulation of tubulin in the centrosomes (overall statement): CHO-tubulin-YFP cells, concentration and time not given; for accumulation of tubulin at the centrosomes versus in the nucleus (overall statement): cells treated, concentration not given
Text: Wild-type Chinese Hamster Ovary cells (WT CHO) cells were maintained in Ham's F-12 medium supplemented with 10% fetal bovine serum (FBS; HyClone, Logan, Utah). Cells of low density (˜20%) growing on 2-well chambered cover-slips (Labtek (Campbell, Calif.) or Fisher Scientific) were transfected with a mammalian expression vector encoding α-tubulin-YFP (Clontech, Palo Alto, Calif.) with the use of FuGENE 6 (Roche Molecular Biochemicals, Indianapolis, Ind.), according to the manufacturer's instructions. Twenty-four hours after transfection, the cells were cultured in 400 μg/ml G418 (Invitrogen, Carlsbad, Calif.)-containing selection medium for 2 weeks. Living cells were examined using a fluorescent microscope for α-tubulin-YFP expression. Cells in single colonies containing microtubules labeled with α-tubulin-YFP were lifted and expanded in G418-containing medium. Expression of α-tubulin-YFP was confirmed by the presence of the tubulin-YFP labeled microtubule pattern identical to immunostained microtubule pattern of non-transfected cells, as well as by subjecting the cells to Western blot analysis using an anti-GFP antibody (Roche Molecular Biochemicals, Basel, Switzerland) and confirming the correct mass of the α-tubulin-YFP chimera protein. Expressed tubulin-YFP was detected as a single band in Western blots. The tubulin-YFP expressing cell lines (referred as CHO-α-tubulin-YFP cells) were used in the studies.
CHO-α-tubulin-YFP cells were cultured in 2-well chambered cover-slips (Labtek (Campbell, Calif.) or Fisher Scientific) 24 hours before treatment. For comparison of the centrosomal effects of treatment with Compound 1, Compound 1+Taxol, and Taxol, CHO-α-tubulin-YFP cells were treated with Compound 1, Compound 1+Taxol, Taxol, or equivalent concentrations of DMSO-containing media for various time periods before imaging. For comparison of the effects of Compound 1 and known proteasome inhibitors on centrosomes, the nucleus, and perinuclear regions, CHO-α-tubulin-YFP cells were treated with Compound 1, ALLN (Calbiochem, San Diego, Calif.), lactacystin (Calbiochem, San Diego, Calif.) or MG132 (Calbiochem, San Diego, Calif.), and imaged at various time points from 3 hours to 24 hours after treatment.
Tubulin-YFP fluorescence in living cells or fixed cells was captured using a standard filter for FITC and objectives of 20× or 60× magnification on a Nikon TE300 microscope with a Leica DC50 color digital camera (Leica, Bannockburn, Ill.) or a CoolSnap HQ Monochrome CCD camera (Photonetrics, Tucson, Ariz.). The Leica DC50 and CoolSnapHQ cameras were controlled with Leica DC50 software and MetaVue/MetaMorph software, respectively (Universal Imaging Corp, Downingtown, Pa.).
CHO-α-tubulin-YFP cells were cultured in 2-well chambered cover-slips (Labtek (Campbell, Calif.) or Fisher Scientific) 24 hours before treatment. For comparison of effects on the centrosome, nucleus, and perinuclear regions, cells were treated with Compound 1 and known proteasome inhibitors including ALLN, MG132, Lactacystin, MG115, clasto-Lactacystin β-Lactone (cLβL), and Epoxomicin (10 μM final concentration for all except ALLN, which was used at 100 μM final concentration) (proteasome inhibitors were from Calbiochem, San Diego, Calif.) and imaged at various time points up to 24 hours during treatment.
Tubulin-YFP fluorescence in living cells or fixed cells was captured using a standard filter for FITC and objectives of 20× or 60× magnification on the Nikon TE300 microscope/digital imaging system.

[1] = biological target: T1, bovine red blood cell 20S proteasome (Bos taurus, UniProt Q32KL2); assay: 20S Proteasome Assay (in vitro, Suc-Leu-Val-Tyr-AMC); type: biochemical; settings: isolated 20S proteasome; for proteasome activity in vitro: 5 nM
T1 construct: bovine red blood cell 20S proteasome; purchased Calbiochem; host or cells: purified from bovine red blood cells
Procedure: 190 μl of reaction buffer (500 mM HEPES, 10 nM EDTA, pH 7.6), containing 0.03% SDS was pre-incubated for 5 minutes at 37° C. in the presence of 0.2 μg of bovine red blood cell 20S proteasome (Calbiochem, San Diego, Calif.) for temperature equilibration. Subsequently, inhibitors or Compound 1 were added to the reaction mixture at a final DMSO concentration of 0.5%. The reaction was initiated by adding 10 μl of the peptide-AMC substrate (Calbiochem, San Diego, Calif.) to each well. The emitted fluorescence was then measured every third minute at 37° C. for 90 minutes by a fluorescence plate reader (FlexStation II, Molecular Devices, Sunnyvale, Calif.) at 460 nm (λex360 nm) wavelength.
The buffers and reagents for the assay were purchased from Calbiochem (20S Proteasome Assay Kit; Calbiochem, San Diego, Calif.). The principle of the assay is that the release of free AMC (7-Amino-4-methylcoumarin) following degradation of the substrate results in a fluorescent signal that is a measure of proteasome activity. The quantitative analysis of 20S proteasome activity was assayed as described.

[2] = tested on: cell line expressing α-tubulin-YFP; assay: α-tubulin-YFP expressing cell line, flow cytometry of strong fluorescent cells; type: cell-based
CHO cells = assay: Cell morphology, simultaneous time-lapse imaging of CHO cells; type: cell-based, Chinese hamster; settings: for cell death: cells, after a certain period of treatment
Procedure: CV-1 cells and CHO cells were previously cultured in 2-well chambered cover-slips for 48 hours and incubated in 15 mM HEPES buffer-containing Ham's F-12/DMEM medium with different compounds. The cells were imaged using phase contrast settings with the Nikon TE300 microscope/digital imaging system. The cells were imaged ‘simultaneously’ under control of MetaVue software by capturing frames for cells from different conditions at the same time period using a motorized automated XYZ stage.
To track the effect of Compound 1 on live cells, non-transfected CV-1 cells with were treated with 500 nM Compound 1 and phase contrast time-lapse images were taken every 10 seconds. […] A very low concentration of Taxol (10 nM) was used.

`CN(NC(=O)CC(=O)NN(C)C(=S)c1ccccc1)C(=S)c1ccccc1` [Compound 1] was tested, and the “accumulation of α-tubulin-YFP at centrosomes” value (“accumulation … at centrosomes” for short) (CHO-α-tubulin-YFP cells; CHO cells, 50 nM, 8 hours) was “accumulation of α-tubulin-YFP at centrosomes; also recorded: induced accumulation of tubulin at centrosomes within 8 hours”, the “accumulation … at centrosomes” value (CHO-α-tubulin-YFP cells; CHO cells, 50 nM, 20 hours) was “accumulation of α-tubulin-YFP at centrosomes” and the “accumulation … at centrosomes” value (CHO-α-tubulin-YFP cells; CHO cells, 100 nM, 4 hours) was “accumulation of tubulin at centrosomes could be observed; also recorded: accumulation of α-tubulin-YFP at centrosomes”. For the same compound, the “accumulation of α-tubulin-YFP at the centrosomes” value (CHO-α-tubulin-YFP cells; CHO cells, 0.5 μM, 5 hours) was “accumulation of α-tubulin-YFP at the centrosomes and perinuclear regions”, the “accumulation of α-tubulin-YFP at the centrosomes” value (CHO-α-tubulin-YFP cells; CHO cells, 0.5 μM, 11 hours) was “accumulation of α-tubulin-YFP at the centrosomes; also recorded: more frequent and greater accumulation of tubulin at the centrosome” and the “accumulation of tubulin-YFP at the centrosomes” value (CHO-α-tubulin-YFP cells; CHO cells, 0.5 μM, 24 hours) was “accumulation of tubulin-YFP at the centrosomes”. For the same compound, the “accumulation … at centrosomes” value (CHO-α-tubulin-YFP cells; CHO cells, 500 nM, 4 hours) was “accumulation of α-tubulin-YFP at centrosomes”, the “accumulation … at centrosomes” value (CHO-α-tubulin-YFP cells; CHO cells, 500 nM, 20 hours) was “accumulation of α-tubulin-YFP at centrosomes” and the “first sign of tubulin accumulation at the centrosomes, time after treatment” value (CHO-α-tubulin-YFP cells; CHO cells, Compound 1 alone (0.5 μM)) was 5 h. The “accumulation of tubulin in the centrosomes (overall statement)” value (CHO-α-tubulin-YFP cells) was “time-dependent accumulation of α-tubulin-YFP at the centrosomes; also recorded: caused an accumulation of tubulin in the centrosomes”, the “accumulation of tubulin at the centrosomes versus in the nucleus (overall statement)” value (CHO-α-tubulin-YFP cells) was “induced accumulation of tubulin only at the centrosomes; also recorded: not observed” and the “proteasome inhibitory activity in vitro (overall statement)” value [1] was “very weak proteasome inhibitory activity in the in vitro assay”. The “proteasome activity in vitro” value [1] was “no effect on proteasome activity”, the “proteasome inhibitory activity in vitro” value ([1]; 50 μM) was “did not exhibit significant proteasome inhibitory activity; also recorded: neither Compound 1 nor its salt form, Compound 2, displayed significant proteasome inhibitory activity” and the “proteasome inhibitory activity in vitro (overall statement)” value ([1]; listed as GMP-grade Compound 1) was “failed to inhibit isolated proteasomes”. The “increase of the strong-fluorescent positive cells compared to DMSO” value ([2]; 500 nM) was 20.37%, the “time of induced cell shrinkage” value (CHO cells; CHO cells, 500 nM) was 70 min and the cell death (CHO cells) was “cause cell death after a certain period of treatment”.

In the case of `CC(C)C[C@H](NC(=O)[C@H](Cc1ccccc1)NC(=O)c1cnccn1)B(O)O` [Velcade], the “accumulation … at centrosomes” value (CHO-α-tubulin-YFP cells; CHO cells, 50 nM, 20 hours) is reported as “accumulation of α-tubulin-YFP at centrosomes”, the “accumulation of α-tubulin-YFP in the nucleus” value (CHO-α-tubulin-YFP cells; CHO cells, 50 nM, 20 hours) is reported as “accumulation of α-tubulin-YFP in the nucleus” and the “accumulation … at centrosomes” value (CHO-α-tubulin-YFP cells; CHO cells, 500 nM, 4 hours) is reported as “lack of accumulation of tubulin-YFP at the centrosomes”. The “accumulation … at centrosomes” value (CHO-α-tubulin-YFP cells; CHO cells, 500 nM, 8 hours) was “accumulation of α-tubulin-YFP at centrosomes”, the “accumulation of α-tubulin-YFP in the nucleus” value (CHO-α-tubulin-YFP cells; CHO cells, 500 nM, 8 hours) was “accumulation α-tubulin-YFP in the nucleus” and the “accumulation … at centrosomes” value (CHO-α-tubulin-YFP cells; CHO cells, 500 nM, 20 hours) was “accumulation of α-tubulin-YFP at centrosomes”. For the same compound, the “accumulation of α-tubulin-YFP in the nucleus” value (CHO-α-tubulin-YFP cells; CHO cells, 500 nM, 20 hours) was “accumulation of α-tubulin-YFP in the nucleus”, the “accumulation of tubulin in the centrosomes (overall statement)” value (CHO-α-tubulin-YFP cells) was “required a higher concentration (500 nM; FIG. 25D) and/or a longer time period” and the “accumulation of tubulin at the centrosomes versus in the nucleus (overall statement)” value (CHO-α-tubulin-YFP cells) was “both accumulation of tubulin at the centrosomes and in the nucleus; also recorded: induced accumulation of tubulin in the nucleus”. The “proteasome activity in vitro” value [1] was “almost complete inhibition”, the “proteasome inhibition in vitro” value ([1]; 0.5 μM) was “almost completely inhibited the proteasome” and the “increase of the strong-fluorescent positive cells compared to DMSO” value ([2]; 50 nM) was 27.74%. The “effect on cell morphology” value (CHO cells; CHO cells, 100 nM) was “did not dramatically affect cell morphology until cell death”, the “time of cell death” value (CHO cells; CHO cells, 100 nM) was 210 min and the cell death (CHO cells) was “cause cell death after a certain period of treatment”.
